Results reported in patent US11396506B2, “Amino acid compounds with unbranched linkers and methods of use” (Pliant Therapeutics, Inc., priority 2018, dated 2022).

What follows are compounds tested against recombinant human integrin αVβ6 (Homo sapiens (Human), UniProt P06756+P18564) (assay: Solid phase integrin αVβ6 binding assay). Details: recombinant TGFβ1 LAP as ligand, values given as ranges, read-out: αVβ6 Inhibition IC50 (nM) - range.
Description: Example B1—Solid Phase Integrin αVβ6 Binding Assay
Microplates were coated with recombinant human integrin αVβ6 (2 μg/mL) in PBS (100 μL/well 25 OC, overnight). The coating solution was removed, washed with wash buffer (0.05% Tween 20; 0.5 mM MnCl2; in 1×TBS). Plate was blocked with 200 μL/well of Block Buffer (1% BSA; 5% sucrose; 0.5 mM MnCl2; in 1×TBS) at 37° C. for 2 h. Dilutions of testing compounds and recombinant TGFβ1 LAP (0.67 μg/mL) in binding buffer (0.05% BSA; 2.5% sucrose; 0.5 mM MnCl2; in 1×TBS) were added. The plate was incubated for 2 hours at 25° C., washed, and incubated for 1 hour with Biotin-Anti-hLAP. Bound antibody was detected by peroxidase-conjugated streptavidin. The IC50 values for testing compounds were calculated by a four-parameter logistic regression.
The compounds tested were compound samples prepared according to procedures described in the Synthetic Examples section, with the stereochemical purity as indicated in the Examples.

Sequence of recombinant human integrin αVβ6 (P06756 31-992): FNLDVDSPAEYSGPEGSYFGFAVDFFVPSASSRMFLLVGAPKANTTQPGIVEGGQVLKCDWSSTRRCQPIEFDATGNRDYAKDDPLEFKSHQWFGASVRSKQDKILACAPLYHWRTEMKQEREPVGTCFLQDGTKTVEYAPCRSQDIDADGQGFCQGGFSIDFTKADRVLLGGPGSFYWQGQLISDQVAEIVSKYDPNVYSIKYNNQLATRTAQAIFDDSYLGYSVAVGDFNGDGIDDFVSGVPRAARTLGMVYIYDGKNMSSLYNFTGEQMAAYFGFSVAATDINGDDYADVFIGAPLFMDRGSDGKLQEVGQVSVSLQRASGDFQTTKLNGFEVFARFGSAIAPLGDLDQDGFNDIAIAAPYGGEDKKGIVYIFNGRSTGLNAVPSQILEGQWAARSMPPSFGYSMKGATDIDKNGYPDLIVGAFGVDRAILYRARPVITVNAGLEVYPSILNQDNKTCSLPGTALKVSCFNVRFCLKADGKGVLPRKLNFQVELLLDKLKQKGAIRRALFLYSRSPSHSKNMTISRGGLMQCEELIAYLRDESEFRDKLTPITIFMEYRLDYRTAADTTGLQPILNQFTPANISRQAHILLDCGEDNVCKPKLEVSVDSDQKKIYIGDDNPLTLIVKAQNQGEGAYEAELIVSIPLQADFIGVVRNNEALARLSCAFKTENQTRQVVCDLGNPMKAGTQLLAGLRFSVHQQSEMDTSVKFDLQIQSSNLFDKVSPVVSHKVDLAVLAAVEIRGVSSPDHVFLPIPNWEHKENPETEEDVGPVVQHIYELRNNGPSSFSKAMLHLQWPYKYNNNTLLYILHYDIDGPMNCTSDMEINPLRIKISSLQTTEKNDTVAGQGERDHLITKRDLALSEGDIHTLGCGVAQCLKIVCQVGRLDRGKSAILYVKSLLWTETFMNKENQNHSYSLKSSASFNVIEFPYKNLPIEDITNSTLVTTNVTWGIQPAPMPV
Sequence of recombinant human integrin αVβ6 (P18564 22-707): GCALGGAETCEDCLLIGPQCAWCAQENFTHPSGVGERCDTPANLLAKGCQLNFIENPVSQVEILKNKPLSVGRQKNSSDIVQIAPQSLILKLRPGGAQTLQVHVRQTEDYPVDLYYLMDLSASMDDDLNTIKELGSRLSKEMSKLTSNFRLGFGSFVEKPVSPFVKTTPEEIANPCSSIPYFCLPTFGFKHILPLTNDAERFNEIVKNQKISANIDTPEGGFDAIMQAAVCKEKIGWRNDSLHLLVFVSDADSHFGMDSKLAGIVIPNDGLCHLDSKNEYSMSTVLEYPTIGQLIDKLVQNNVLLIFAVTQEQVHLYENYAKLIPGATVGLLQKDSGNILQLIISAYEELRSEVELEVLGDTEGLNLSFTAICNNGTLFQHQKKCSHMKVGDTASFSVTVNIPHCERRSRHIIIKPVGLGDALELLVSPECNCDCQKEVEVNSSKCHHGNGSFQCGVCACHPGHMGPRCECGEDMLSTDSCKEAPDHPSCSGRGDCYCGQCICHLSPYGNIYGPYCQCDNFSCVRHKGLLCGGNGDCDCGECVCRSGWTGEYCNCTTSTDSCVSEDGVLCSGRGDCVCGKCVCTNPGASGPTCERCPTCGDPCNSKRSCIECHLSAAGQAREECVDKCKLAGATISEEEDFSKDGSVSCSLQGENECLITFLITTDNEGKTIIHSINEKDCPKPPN

SMILES	IC50 [nM]
CS(=O)(=O)N1CCC[C@@H](C(=O)N[C@@H](CCCCCCCc2ccc3c(n2)NCCC3)C(=O)O)C1 (mixture of isomers) [Compound 37, (S)-2-((R)-1-(methylsulfonyl)piperidine-3-carboxamido)-9-(5,6,7,8-tetrahydro-1,8-naphthyridin-2-yl)nonanoic acid and (S)-2-((S)-1-(methylsulfonyl)piperidine-3-carboxamido)-9-(5,6,7,8-tetrahydro-1,8-naphthyridin-2-yl)nonanoic Acid]	< 50
O=C(O)[C@H](CCCCCCCc1ccc2c(n1)NCCC2)NC(=O)[C@H]1CCOc2ccccc21 (mixture of isomers) [Compound 46, (S)-2-((S)-chromane-4-carboxamido)-9-(5,6,7,8-tetrahydro-1,8-naphthyridin-2-yl)nonanoic Acid and (S)-2-((R)-chromane-4-carboxamido)-9-(5,6,7,8-tetrahydro-1,8-naphthyridin-2-yl)nonanoic Acid]	50 to 250
C[C@@]1(C(=O)N[C@@H](CCCCCCCc2ccc3c(n2)NCCC3)C(=O)O)CCCOC1 (mixture of isomers) [Compound 47, (S)-2-((R)-3-methyltetrahydro-2H-pyran-3-carboxamido)-9-(5,6,7,8-tetrahydro-1,8-naphthyridin-2-yl)nonanoic Acid and (S)-2-((S)-3-methyltetrahydro-2H-pyran-3-carboxamido)-9-(5,6,7,8-tetrahydro-1,8-naphthyridin-2-yl)nonanoic Acid]	50 to 250
CS(=O)(=O)CCCC(=O)N[C@@H](CCCCCCCc1ccc2c(n1)NCCC2)C(=O)O [Compound 24, (S)-2-(4-(methylsulfonyl)butanamido)-9-(5,6,7,8-tetrahydro-1,8-naphthyridin-2-yl)nonanoic Acid]	251 to 1000
COCCCC(=O)N[C@@H](CCCCCCCc1ccc2c(n1)NCCC2)C(=O)O [Compound 30, (S)-2-(4-methoxybutanamido)-9-(5,6,7,8-tetrahydro-1,8-naphthyridin-2-yl)nonanoic Acid]	251 to 1000
CC(C)(C)OC(=O)N1CC(C)(OC(=O)N[C@@H](CCCCCCCc2ccc3c(n2)NCCC3)C(=O)O)C1 [Compound 32, (S)-2-((((1-(tert-butoxycarbonyl)-3-methylazetidin-3-yl)oxy)carbonyl)amino)-9-(5,6,7,8-tetrahydro-1,8-naphthyridin-2-yl)nonanoic Acid]	< 50
CC(=O)N1CCC(C(=O)N[C@@H](CCCCCCCc2ccc3c(n2)NCCC3)C(=O)O)CC1 [Compound 36, (S)-2-(1-acetylpiperidine-4-carboxamido)-9-(5,6,7,8-tetrahydro-1,8-naphthyridin-2-yl)nonanoic Acid]	50 to 250
NS(=O)(=O)CCC(=O)N[C@@H](CCCCCCCc1ccc2c(n1)NCCC2)C(=O)O [Compound 38, (S)-2-(3-sulfamoylpropanamido)-9-(5,6,7,8-tetrahydro-1,8-naphthyridin-2-yl)nonanoic Acid]	251 to 1000

Results, then the compound that gave them:

IC50 [nM]	SMILES
< 50	CC1(C(=O)N[C@@H](CCCCCCCc2ccc3c(n2)NCCC3)C(=O)O)CCOCC1 [Compound 8, (S)-2-(4-methyltetrahydro-2H-pyran-4-carboxamido)-9-(5,6,7,8-tetrahydro-1,8-naphthyridin-2-yl)nonanoic Acid]
50 to 250	O=C(N[C@@H](CCCCCCCc1ccc2c(n1)NCCC2)C(=O)O)C1CCNCC1 [Compound 34, (S)-2-(piperidine-4-carboxamido)-9-(5,6,7,8-tetrahydro-1,8-naphthyridin-2-yl)nonanoic Acid]
< 50	CS(=O)(=O)N1CCC(C(=O)N[C@@H](CCCCCCCc2ccc3c(n2)NCCC3)C(=O)O)CC1 [Compound 39, (S)-2-(1-(methylsulfonyl)piperidine-4-carboxamido)-9-(5,6,7,8-tetrahydro-1,8-naphthyridin-2-yl)nonanoic Acid]
< 50	O=C(O)[C@H](CCCCCCCc1ccc2c(n1)NCCC2)NC(=O)C1(C(F)(F)F)CCOCC1 [Compound 42, (S)-9-(5,6,7,8-tetrahydro-1,8-naphthyridin-2-yl)-2-(4-(trifluoromethyl)tetrahydro-2H-pyran-4-carboxamido)nonanoic Acid]
< 50	O=C(N[C@@H](CCCCCCCc1ccc2c(n1)NCCC2)C(=O)O)C1CC2CCC(C1)O2 (stereo partly drawn) [Compound 43, (S)-2-((1R,3s,5S)-8-oxabicyclo[3.2.1]octane-3-carboxamido)-9-(5,6,7,8-tetrahydro-1,8-naphthyridin-2-yl)nonanoic acid and (S)-2-((1R,3r,5S)-8-oxabicyclo[3.2.1]octane-3-carboxamido)-9-(5,6,7,8-tetrahydro-1,8-naphthyridin-2-yl)nonanoic Acid]
< 50	CC1(C(=O)N[C@@H](CCCCCCCc2ccc3c(n2)NCCC3)C(=O)O)CCCCC1 [Compound 44, (S)-2-(1-methylcyclohexanecarboxamido)-9-(5,6,7,8-tetrahydro-1,8-naphthyridin-2-yl)nonanoic Acid]
< 50	O=C(O)[C@H](CCCCCCCc1ccc2c(n1)NCCC2)NC(=O)C12CC(C1)C2 [Compound 45, (S)-2-(bicyclo[1.1.1]pentane-1-carboxamido)-9-(5,6,7,8-tetrahydro-1,8-naphthyridin-2-yl)nonanoic Acid]
